In one test the test system is HPAF-II cells. The test can be described thus: Cell cycle G2/M arrest, PI staining flow cytometry. The following applies: HPAF-II cells with p53 pathogenic mutation, 0.1 nM AST-3424, 5 µM Nutlin-3, 24 hours (Figure 5). It counts as cell-based. As for the experimental part: Overview of the experimental process: • 1) H460/HPAF-II cell suspensions were added to a 24-well plate, with a cell density of 100000 /well and 995 µL of medium per well. • 2) The cells were cultured overnight in an incubator at 37°C, 5% CO2. • 3) Compound Treatment
After 24 hours of cell plating, according to the protocol, each cell line experiment was grouped as: Monotherapy: After 24 hours of cell plating, each well was supplied with 5µL of test compounds at different concentrations: 1% DMSO, 5 µM Nutlin-3 and 0.1 nM AST-3424, shaken gently to ensure even mixing, and then placed at 37°C, 5% CO2 in an incubator.
To cells AST-3424 pre-treatment for 2 hours followed by co-treatment with Nutlin-3 for 24 hours.
To cells Nutlin-3 pre-treatment for 2 hours followed by co-treatment with AST -3424 for 24 hours.
Co-treatment with AST-3424 and Nutlin-3 for 24 hours.
4) The cells were digested, centrifuged at 1000 g at 4°C, washed once with pre-cooled PBS, centrifuged at 1000 g at 4°C, and fixed with 1 mL of pre-cooled 70% ethanol at -20°C overnight.
5) The cells were centrifuged at 3000g at 4°C, washed once with pre-cooled PBS (phosphate buffer), centrifuged at 3000g at 4°C. Prepare PI staining solution. […] Flow cytometric detection was performed on the same day, and the proportion of cells in different cell cycle phases was analyzed using FlowJo. […]

Test [1] relates to Total P53, MDM2, P21, AKR1C3 proteins in H460 cells. As to the kind of experiment: WB detection, presence and absence of Nutlin-3. It counts as cell-based, human. The following applies: wild-type H460, 5 µM Nutlin-3, 24h, compared with the H460 wild-type DMSO group (Figures 29, 30).
Method: • 1) H460 and H460 P53 KO cell suspensions were added to a 24-well plate, with a cell density of 100000 /well and 995 µL of medium per well. • 2) The cells were cultured overnight in an incubator at 37°C, 5% CO2. • 3) Compound Treatment
After 24 hours of cell plating, according to the protocol, each cell line experiment was grouped as: H460 WT untreated group, H460 P53 KO # 1 untreated group, H460 P53 KO # 7 untreated group, H460 P53 KO # 8 untreated group, H460 P53 KO # 12 untreated group, H460 WT 0.1% DMSO treated group, H460 WT 5 µM Nutlin-3 treated group, H460 P53 KO # 1 5 µM Nutlin-3 treated group, H460 P53 KO # 7 5 µM Nutlin-3 treated group, H460 P53 KO # 8 5 µM Nutlin-3 treated group, H460 P53 KO # 12 5 µM Nutlin-3 treated group. […]
• 1) The cell plates were taken back, the medium supernatant was discarded, and the plates were gently rinsed with PBS. […] The cells were scraped off with a cell scraper, lysed on ice for 30 min, and centrifuged at 14000 rpm and 4°C for 10 min. • 2) Protein quantification was performed using the BCA method. […] Solutions A and B of the ECL luminescence solution (SuperSignal West Femto Maximum Sensitivity) were mixed and added to the membrane dried away from water. […]
The next test concerns liver cancer. As to the kind of experiment: Phase II clinical trial of AST-3424 (CTR20191399). It counts as in vivo, human. The source says: The clinical trial registration number is CTR20191399.
• 1. Male or female, aged ≥18 years old. • 2. Histopathologically confirmed advanced HCC that cannot be controlled by surgical resection or local therapy. • 3. History of prior standard systemic therapy including, but not limited to, Sorafenib and/or Oxaliplatin-based systemic chemotherapy, Lenvatinib, Regorafenib and/or Nivolumab, who have experienced disease progression, toxicity intolerance, or refusal to continue treatment with these drugs. • 4. At least one measurable lesion meeting RECIST 1.1 criteria. A lesion with a history of prior radiation therapy shall not be regarded as the measurable lesion unless a definite radiological progression is observed after radiation therapy. • 5. […] Eastern Cooperative Oncology Group (ECOG) performance status score of 0 or 1. • 7. Expected survival time ≥ 12 weeks. • 8. With or without HBV or HCV infection. a. For subjects with HBV infection, HBV-DNA level shall be <2,000 IU/ml, and antiviral therapy with entecavir, tenofovir disoproxil fumarate, or tenofovir alafenamide fumarate shall be administered according to the national guidelines for the prevention and treatment of chronic hepatitis B. The therapy shall be maintained during the study and continued for 6 months after the last dose of the study drug. b. For subjects with HCV infection (in the presence of detectable HCV-RNA or anti-HCV antibodies), treatment may be conducted according to medical practice. • 9. Child-Pugh score ≤ 6 points. • 10. No history of hepatic encephalopathy. • 11. Prior to the initiation of the study drug, all toxicities from previous anticancer therapies (except alopecia, fatigue, or peripheral neuropathy) shall have returned to Grade 1 or baseline levels (NCI CTCAE Version 5). • 12. Subject's laboratory tests shall meet the following criteria. During 14 days before screening laboratory tests, no correction of indicators by blood transfusion, hematopoietic growth factor infusion or albumin infusion is allowed to meet the inclusion criteria: a. Hemoglobin ≥ 90 g/L; b. Platelet count ≥ 80 × 10^9/L; c. Absolute neutrophil count (ANC) ≥ 1.5 × 10^9/L; d. Serum total bilirubin ≤ 3 mg/dL; E. ALT and AST ≤ 5.0 × ULN; f. International normalized ratio (INR) ≤ 2.3 or prothrombin time prolongation ≤ 6 seconds; g. Albumin ≥ 29 g/L; h. Creatinine clearance > 50 mL/min as measured according to the Cockcroft-Gault equation. • 13. No history of alcohol, drug or substance abuse within the past year. • 14. Fertile female subjects shall be in non-lactating and have a negative pregnancy test result within 5 days prior to the initiation of treatment (the subject with a positive urine pregnancy test result needs to be reconfirmed by a serum pregnancy test). • 15. Fertile female and male subjects shall agree to use effective contraceptive measures (e.g. surgical sterilization or condom or diaphragm contraception combined with spermicidal gel or intrauterine contraceptive device [IUD], etc.) with their partners from the start of study participation until 6 months after the last dose of the study drug. • 16. Voluntary participation in this study, fully understanding of the relevant risks, good compliance, and signing the informed consent. Subjects may also sign an informed consent form for future biomedical research (FBR). However, the subjects who would not participate in FBR are still allowed participate in the main trial.
• 1. Untreated active central nervous system (CNS) metastases or leptomeningeal disease. Subjects with CNS metastases that have been adequately treated and confirmed to be stable for at least 4 weeks during screening by clinical tests and brain imaging (MRI or CT) are allowed to participate in the study. • 2. […]

The next test has as its system H460 cells. As to the kind of experiment: Cell proliferation experiment (3 days) with different administration sequences. The following applies: after the addition of Nutlin-3, different administration sequences (Figure 2). It counts as cell-based. The procedure: Further combination therapy experiments with different administration sequences of AST-3424 were carried out. Dosing regimens were set for the experiments.
Monotherapy: Each well was added with AST-3424 alone, Nutlin-3 alone, 5 µL of each compound in different concentrations (400 times) and 5 µL of medium. The cells were treated (DMSO 0.25% and 0.50%).
Combination therapy: Cells were treated with 5 µL each of AST-3424 and Nutlin-3 in different administration sequences: AST-3424 pre-treatment for 2 hours followed by co-treatment with Nutlin-3 for 6 hours; Nutlin-3 pre-treatment for 2 hours followed by co-treatment with AST-3424 for 6 hours; and co-treatment with AST-3424 and Nutlin-3 for 6 hours.

Where [2] appears, read: 8 subjects who completed efficacy evaluation, liver cancer, 6 mg/m^2 day 1 and day 8 of 21-day cycle, as of July 21, 2023.
Setting [3] is: subgroup of 4 cases negative (-) for p53 gene mutation or defect, liver cancer, 6 mg/m^2 day 1 and day 8 of 21-day cycle, as of July 21, 2023.

Values joined by “and” are separate entries in the source; they are usually repeats but may differ in a detail not shown here. Equal entries are not always repeated.

Turning to `COc1ccc(C2=NC(c3ccc(Cl)cc3)C(c3ccc(Cl)cc3)N2C(=O)N2CCNC(=O)C2)c(OC(C)C)c1` (racemic) [Nutlin-3], in the test with HPAF-II cells, the “cell cycle (G0/G1, S, G2/M phases)” value is reported as “no effect”. Besides, the “expressions of MDM2, P53, P21 and AKR1C3 proteins (WB)” value in test [1] is given as “all upregulated”.
For the compound `C[C@H](OP(=O)(N1CC1)N1CC1)c1ccc([N+](=O)[O-])c(Oc2cccc(C(=O)N(C)C)c2)c1` [AST-3424], the “overall DCR” value with liver cancer (8 evaluated liver cancer subjects, 6 mg/m^2 day 1 and day 8 of 21-day cycle, as of July 21, 2023) is 75%. For the same compound, in the test on liver cancer (setting [2]), the “subjects achieved PD” value was 25%, the “subjects achieved PR” value was 12.5% and the “subjects achieved SD” value worked out at 62.5%. Besides, in the test with liver cancer (overall, 8 evaluated liver cancer subjects, 6 mg/m^2 day 1 and day 8 of 21-day cycle, as of July 21, 2023), the ORR was 12.5%. Further, the Efficacy evaluation entry in the test with liver cancer (per case, 3 subjects with positive P53 mutation, unclear in whether it affects protein expression (VUS) (Table 10), as of March 11, 2024) is “SD, lesion increase”. Moreover, the PFS with liver cancer (per case, 8 P53 mutation-positive (MUT) subjects (Table 8), 6 mg/m^2 day 1 and day 8 of 21-day cycle, as of March 11, 2024) was 1.4 months and 1.6 months and 1.5 months and 1.2 months. Also, in the test on liver cancer (setting [3]), the DCR is listed as 75% and the ORR was 25%. Moreover, the DCR in the test with liver cancer (subgroup of 4 cases positive (+) for p53 gene mutation or defect, liver cancer, 6 mg/m^2 day 1 and day 8 of 21-day cycle, as of July 21, 2023) is 75%. In the test with H460 cells, the “proliferation inhibition rate of AST-3424” value is given as “significantly increased”.
